According to patent US7342018B2, “Urokinase inhibitors and uses thereof” (Wilex AG, priority 1998, dated 2008):

What was measured:
Urokinase (sc-urokinase) = target: T1, Urokinase (sc-urokinase) (Homo sapiens, UniProt P00749); assay: In vitro inhibition of urokinase (chromogenic substrate, Dixon Ki); format: biochemical; details: in vitro inhibition of urokinase, 25° C, pH 8.0, 5% ethanol; read-out: Ki
T1 construct: purchased Ribosepharm GmbH, Haan, Germany
Description: To determine the inhibitory activity, 200 μl of Tris buffer (0.05 mol/l, containing the inhibitor, 0.154 mol/l NaCl, 5% ethanol pH 8.0), 25 μl of substrate (Pefachrome UK or Bz-βAla-Gly-Arg-pNA in H2O; Pentapharm Ltd., Basle, Switzerland) and 50 μl of sc-urokinase (Ribosepharm GmbH, Haan, Germany) were incubated at 25° C. After 3 min the reaction was stopped by adding 25 μl of acetic acid (50%), and the absorption at 405 nm was determined by means of a Microplate Reader (MR 5000, Dynatech, Denkendorf, Germany). Ki values were determined according to Dixon by linear regression using a computer program. The Ki values are the mean values of at least three determinations with a standard deviation of less than 25%.

[1] = test system: BN-472 rat mammary carcinoma; assay: BN-472 rat mammary carcinoma model, single agent and combination with cytotoxics (Example 11); details: for anti-tumor effects (tumor size development, final tumor weight): once weekly administration i.v.
Description: WX-UK1 was dissolved in 5% w/v of D-mannitol to the appropriate dosage and administered once daily or twice weekly either subcutaneously (s.c.) or intraperitonally (i.p.).
Epirubicin (0.75-3 mg/kg body wight), paclitaxel (5-7.5 mg/kg) or 5-FU (20 and 40 mg/kg) was given once weekly by i.v. injection into the external jugular vein.
Control rats received the vehicle 5% w/v of D-mannitol once daily s.c.
A donor rat bearing a tumor of 20×20 mm was sacrificed, the tumor harvested ant the cortex part was sliced into cubes of approximately 10 mm^3 and the transplated orthotopically under the mammary fad pads of female Brown Norway rats.
Treatment was started three or six days (5-FU experiment) after tumor inoculation. Each treatment group consisted of 15 to 21 rats.
Tumor load is plotted as the average±standard error of the mean (SEM).
Tumor, organ weights as well as lung foci counts are presented in Box-Whisker graphs. […] Whiskers extend to the extreme lower 5th and upper 95th percentiles of values. Dots represent individual data.
P-values represent significance levels of pairwise comparisons of treatment groups versus vehicle control. For combination therapy experiments the P-values for the comparison of a cytostatic mono-therapy versus the combination therapy is given.

SMILES	Ki (Urokinase (sc-urokinase)) [nM]	anti-tumor effects (tumor size development, final tumor weight) [1]	thymus atrophy ([1]; rat, in vivo)
CCOC(=O)N1CCN(C(=O)C(Cc2cccc(C(=N)N)c2)NS(=O)(=O)c2c(C(C)C)cc(C(C)C)cc2C(C)C)CC1.Cl (centres unmarked) [D,L, Nα-(2,4,6-triisopropylphenylsulfonyl)-3-amidino-(D,L)-phenylalanine 4-ethoxycarbonylpiperazide hydrochloride]	960		
O=c1[nH]cc(F)c(=O)[nH]1 [Example 5-FU, 5-fluorouracil, reference compound]		Dose-dependent anti-tumor effects	
COc1cccc2c1C(=O)c1c(O)c3c(c(O)c1C2=O)C[C@@](O)(C(=O)CO)C[C@@H]3O[C@H]1C[C@H](N)[C@@H](O)[C@H](C)O1 [epirubicin, reference compound]		Dose-dependent anti-tumor effects	thymus atrophy
CC(=O)O[C@H]1C(=O)[C@@]2(C)[C@H]([C@H](OC(=O)c3ccccc3)[C@]3(O)C[C@H](OC(=O)[C@H](O)[C@@H](NC(=O)c4ccccc4)c4ccccc4)C(C)=C1C3(C)C)[C@]1(OC(C)=O)CO[C@@H]1C[C@@H]2O [paclitaxel, reference compound]		Dose-dependent anti-tumor effects	
